Data set [1] has as its system sebaceous lipids in sebum (fatty acid, squalene, cholesterol, wax esters, cholesteryl ester). Details: species or system Rhino mice (RHJ/LeJ). To be noted: mouse, in vivo.
The test system of a further data set is Substance P. Details: species or system Rhino mice (RHJ/LeJ). Particulars: mouse, in vivo.
The next data set concerns IL-1 alpha. Details: species or system Rhino mice (RHJ/LeJ). Particulars: mouse, in vivo.
A further data set has as its system sebaceous glands. Details: species or system Rhino mice (RHJ/LeJ). Particulars: mouse, in vivo.
A further data set has as its system utriculi. Details: species or system Rhino mice (RHJ/LeJ). Particulars: mouse, in vivo.
The next data set has as its system keratinocytes. Details: species or system Rhino mice (RHJ/LeJ). Particulars: mouse, in vivo.
For the next data set, the system named is fibroblasts. Details: species or system Rhino mice (RHJ/LeJ). To be noted: mouse, in vivo.
The test system of another data set is sebocytes. Details: species or system Rhino mice (RHJ/LeJ). To be noted: mouse, in vivo.
For the next data set, the system named is back skin of Rhino mice. Particulars: Rhino (RHJ/LeJ), mouse, in vivo.
The subject of a further data set is epidermis (back skin). To be noted: Rhino (RHJ/LeJ), mouse, in vivo.
The subject of data set [2] is dermis (inflammatory infiltrate). Particulars: Rhino (RHJ/LeJ), mouse, in vivo.
The next data set concerns dorsal skin. Particulars: Rhino (RHJ/LeJ), mouse, in vivo.

“And” between values parts separate entries of the source, which are not always exact repeats. Equal entries are not always repeated.

Take `COc1ccc(-c2ccc3cc(C(=O)O)ccc3c2)cc1C12CC3CC(CC(C3)C1)C2` [Adapalene]: the “Induction of increased excretion of fatty acid to the epidermis” value in data set [1] was “did not”. Also, the “Substance P concentration in back skin” value in the data set on Substance P was 335.5 pg/g tissue and 414.1 pg/g tissue and 453.4 pg/g tissue and 409.8 pg/g tissue and 403.9 pg/g tissue and 491.3 pg/g tissue. Further, in the data set with IL-1 alpha, the “Decrease of IL-1 alpha level versus vehicle” value stood at 96%; the “IL-1 alpha Concentration” value was 50.4 ng/g tissue and 40.3 ng/g tissue and 45.1 ng/g tissue and 47.8 ng/g tissue and 69.3 ng/g tissue and 36.4 ng/g tissue; the “IL-1 alpha level in back skin (mean±SD)” value turned out to be 47.7±11.5 ng/g tissue. Besides, the “Increase of sebaceous glands surface versus vehicle group” value in the data set with sebaceous glands is “+82%”. Moreover, in the data set with utriculi, the “Decrease in the surface area of the utriculi” value amounted to 94%; the utriculi surface is 515.3 μm^2 and 545.4 μm^2 and 585.7 μm^2 and 515.2 μm^2 and 806.1 μm^2 and 527.4 μm^2 and 605.0 μm^2. In the data set on keratinocytes, the “Increase of Ki67 positive cells in epidermis (keratinocytes)” value worked out at 30%; the “Ki67 positive cells per mm^2” value is 4411.7 cells per mm^2 and 4260.9 cells per mm^2 and 4248.9 cells per mm^2 and 3981.7 cells per mm^2 and 4121.7 cells per mm^2 and 4733.8 cells per mm^2. In the data set on fibroblasts, the “Increase of Ki67 positive cells in dermis (fibroblasts)” value worked out at 43%; the “Ki67 positive cells per mm^2” value was 1229.8 cells per mm^2 and 1499.9 cells per mm^2 and 2072.0 cells per mm^2 and 1218.1 cells per mm^2 and 1088.8 cells per mm^2 and 1181.9 cells per mm^2. The “Ki67 positive cells per mm^2” value in the data set on sebocytes was 3722.1 cells per mm^2 and 4331.9 cells per mm^2 and 3916.9 cells per mm^2 and 3392.4 cells per mm^2 and 4299.5 cells per mm^2 and 2928.2 cells per mm^2. In addition, in the data set on back skin of Rhino mice, the “Erythema mean score on dorsal skin” value was 0.3-1.1 and the “Scaling mean score on dorsal skin” value is listed as 0.5-1.3. In the data set on epidermis (back skin), the “Increase in epidermis thickness (hyperplasia)” value is given as “+188%”. Further, the “Increase of inflammation of the dermis” value in data set [2] was “+23%”. Also, the “Thickening of the dorsal skin as compared to the vehicle group” value in the data set on dorsal skin was “+14%”.
